The values that follow come from PMC12192500, “Selective Dual Inhibition of TNKS1 and CDK8 by TCS9725 Attenuates STAT1/β-Catenin/TGFβ1 Signaling in Renal Cancer” (Current Issues in Molecular Biology, 2025).

Test [1] addresses T1, TNKS1 (Tankyrase 1, PARP5A) (Homo sapiens, UniProt O95271).
T1 construct: gene TNKS
Nature of the test: TNKS1 colorimetric PARP activity assay kit (BPS #[…]), histone-coated plate. It is filed as biochemical.

In test [2] the target is CDK8 (Cyclin-dependent kinase 8) (Homo sapiens, UniProt P49336). In words: luminescence-based kinase assay. It is filed as biochemical.
CDK8 (Cyclin-dependent kinase 8), sequence (P49336 whole entry): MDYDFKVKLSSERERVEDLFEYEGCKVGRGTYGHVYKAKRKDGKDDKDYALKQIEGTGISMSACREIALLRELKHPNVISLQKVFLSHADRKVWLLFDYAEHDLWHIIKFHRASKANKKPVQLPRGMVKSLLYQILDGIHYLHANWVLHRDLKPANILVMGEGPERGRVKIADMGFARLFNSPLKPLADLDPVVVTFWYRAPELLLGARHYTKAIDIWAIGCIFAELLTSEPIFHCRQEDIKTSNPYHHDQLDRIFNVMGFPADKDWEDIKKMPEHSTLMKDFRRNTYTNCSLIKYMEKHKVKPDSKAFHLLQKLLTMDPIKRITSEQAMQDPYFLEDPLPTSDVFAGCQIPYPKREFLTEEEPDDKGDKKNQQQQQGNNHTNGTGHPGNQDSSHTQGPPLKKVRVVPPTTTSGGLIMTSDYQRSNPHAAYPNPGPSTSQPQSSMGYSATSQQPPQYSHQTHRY

T1 sequence (O95271 whole entry): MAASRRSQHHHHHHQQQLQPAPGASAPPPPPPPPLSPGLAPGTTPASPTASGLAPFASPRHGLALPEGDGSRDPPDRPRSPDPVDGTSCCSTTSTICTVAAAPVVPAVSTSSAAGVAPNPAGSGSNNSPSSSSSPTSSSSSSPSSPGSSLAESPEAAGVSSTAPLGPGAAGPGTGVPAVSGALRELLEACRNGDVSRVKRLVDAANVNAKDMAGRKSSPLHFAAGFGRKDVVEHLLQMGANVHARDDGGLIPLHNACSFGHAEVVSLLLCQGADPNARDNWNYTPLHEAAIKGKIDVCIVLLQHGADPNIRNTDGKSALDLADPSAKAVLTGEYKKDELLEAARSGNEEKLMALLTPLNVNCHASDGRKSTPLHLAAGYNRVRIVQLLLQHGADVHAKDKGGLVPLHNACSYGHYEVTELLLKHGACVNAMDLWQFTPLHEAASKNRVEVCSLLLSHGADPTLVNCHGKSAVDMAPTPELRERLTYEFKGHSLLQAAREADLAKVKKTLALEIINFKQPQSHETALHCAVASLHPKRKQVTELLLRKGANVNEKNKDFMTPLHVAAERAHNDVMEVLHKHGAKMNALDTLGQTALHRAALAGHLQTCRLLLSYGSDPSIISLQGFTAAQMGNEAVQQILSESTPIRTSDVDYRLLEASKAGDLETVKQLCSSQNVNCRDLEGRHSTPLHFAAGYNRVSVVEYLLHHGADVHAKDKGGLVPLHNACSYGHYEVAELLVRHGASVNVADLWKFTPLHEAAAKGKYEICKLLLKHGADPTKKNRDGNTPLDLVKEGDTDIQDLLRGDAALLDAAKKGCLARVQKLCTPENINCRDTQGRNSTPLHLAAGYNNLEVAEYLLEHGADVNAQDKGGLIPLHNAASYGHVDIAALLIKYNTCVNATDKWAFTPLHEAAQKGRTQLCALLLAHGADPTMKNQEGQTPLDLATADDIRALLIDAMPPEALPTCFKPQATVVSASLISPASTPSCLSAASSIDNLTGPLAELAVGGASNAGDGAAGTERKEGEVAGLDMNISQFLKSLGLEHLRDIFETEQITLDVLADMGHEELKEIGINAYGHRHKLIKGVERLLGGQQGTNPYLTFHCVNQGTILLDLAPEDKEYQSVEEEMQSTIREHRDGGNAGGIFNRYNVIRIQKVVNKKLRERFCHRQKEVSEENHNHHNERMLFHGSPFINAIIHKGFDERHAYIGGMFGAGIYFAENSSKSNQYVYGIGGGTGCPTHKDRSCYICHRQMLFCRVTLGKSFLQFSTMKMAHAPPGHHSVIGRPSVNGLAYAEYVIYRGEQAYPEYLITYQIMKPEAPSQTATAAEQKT

Consider `O=c1cccc(-c2ccc(Cl)cc2)o1` [TCS9725, 6-(4-chlorophenyl)-2H-pyran-2-one], for which the IC50 (commonly the concentration at which inhibition is half-maximal) in test [1] is 243 nM; in test [2], 404 nM.
